In PubChem BioAssay AID1035470 (Broad Institute, 2014):
Records with an inconclusive call do not appear. Calls of active or inactive are those of the source.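 Rule for the calls: active = compound lowering the normal-ribosome reporter at least twice as much as the humanized-ribosome reporter, growth loss under a set limit; inconclusive = no clear call, values can overlap the other calls; inactive = the rest.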

Test system: E. coli WT-GFP vs G2058-humanized RFP, fluorescence, 24 h
Assay: growth inhibition of wild-type GFP E. coli versus G2058-humanized strain, dose response, G2058 mutant RFP vs wild-type GFP, cherry-pick, two tests (AID 1035470)
[1] = E. coli WT-GFP vs G2058-humanized RFP mixed culture, total growth OD600, 24 h
[2] = measured here: G2058 humanized mutant RFP growth

Compound | AC50 | AC50 [1] | AC50 [2]
Brc1cc2c(cc1Br)OCCOCCOCCO2 | > 100 µM (inactive) | > 100 µM | > 100 µM
CC1Cc2ccccc2N1C(=O)CN1C(=O)NC(C)(CCc2ccccc2)C1=O (stereo not drawn) | – | > 100 µM | –
CC(=O)Oc1ccc(N(C(C)=O)S(=O)(=O)c2ccc(C)cc2)c2ccccc12 | > 100 µM (inactive) | > 100 µM | –
CCOc1ccc2nc(N(CCN(C)C)C(=O)c3ccc4ccccc4c3)sc2c1 | > 100 µM (inactive) | – | –
O=C(c1ccc(N2CCCCC2)c([N+](=O)[O-])c1)N1CCN(c2ccccn2)CC1 | – | > 100 µM | –
CNC(=O)C[C@H]1CC[C@@H]2[C@@H](COc3ccc(NC(=O)Nc4ccc(F)c(F)c4)cc3C(=O)N2C)O1 | > 100 µM (inactive) | – | –
CCOc1cccc(-c2cc(-c3n[nH]c(=S)n3CC)c3ccccc3n2)c1 | > 100 µM (inactive) | – | –
CCCCn1c(=O)[nH]c(=O)c2c1nc(-c1ccccc1F)n2Cc1ccccc1 | > 100 µM (inactive) | > 100 µM | –
O=C(COC(=O)C1CC2C=CC1C2)NCCc1ccccc1 (stereo not drawn) | – | > 100 µM | –
Cc1cc(C(=O)Nc2cccc3c2O[C@H](CN(C)S(=O)(=O)c2ccc(Cl)cc2)[C@H](C)CN([C@H](C)CO)C3=O)n(C)n1 | > 100 µM (inactive) | – | 32.9 µM
COC(=O)c1ccc2nc(-c3cccc(Br)c3)c(Cc3ccsc3)n2c1 | > 100 µM (inactive) | – | > 100 µM
COc1ccc(Cn2c(=O)c3[nH]cnc3n(-c3ccc(C)cc3)c2=O)cc1 | > 100 µM (inactive) | > 100 µM | –
CC(C)(CC(=O)O)CC(=O)NCc1c(Cl)cccc1Sc1ccc(Cl)cc1 | > 100 µM (inactive) | – | –
O=c1c2ccccc2cnn1Cc1n[nH]c(=S)n1C1CC2CCC1C2 (stereo not drawn) | > 100 µM (inactive) | > 100 µM | –
Cc1c(C(=O)O)oc2ccc(S(=O)(=O)NC3CCCCCCC3)cc12 | > 100 µM (inactive) | – | –
O=C(O)c1ccccc1-c1ccccc1C(=O)Nc1ccc2c(c1)CCC2 | > 100 µM (inactive) | – | –
COc1cccc(C(=O)C2CCCN(C/C=C/c3ccccc3OC)C2)c1 (stereo not drawn) | > 100 µM (inactive) | – | > 100 µM
CCCNc1ccc(C(=O)OCC)cc1[N+](=O)[O-] | > 100 µM (inactive) | > 100 µM | –
Oc1ccc(-c2csc(Nc3ncccn3)n2)cc1 | – | > 100 µM | > 100 µM
COc1ccc(CNc2ncnc3cc(OC)c(OC)cc23)cc1OC | > 100 µM (inactive) | > 100 µM | –
C=C(C)Cn1c(=O)c2c(nc3n2CC(C)CN3Cc2ccccc2)n(C)c1=O (stereo not drawn) | > 100 µM (inactive) | – | –
CCCCc1ccc(S(=O)(=O)Nc2ccc(C)c(NS(C)(=O)=O)c2)cc1 | > 100 µM (inactive) | – | –
O=C(COC(=O)C1CC2C=CC1C2)Nc1ccc([N+](=O)[O-])cc1 (stereo not drawn) | – | > 100 µM | > 100 µM

Compound | AC50 | AC50 [1] | AC50 [2]
COc1cc2cc(C(=O)Nc3ccc4c(c3)OCCO4)[nH]c2cc1OC | > 100 µM (inactive) | – | –
Cc1cccc(OCCC(=O)Nc2ccc(F)c(F)c2)c1 | > 100 µM (inactive) | – | –
CCOC(=O)c1cc(C)nc(N2CCCCC2)c1C#N | > 100 µM (inactive) | > 100 µM | –
O=C(Nc1cscc1S(=O)(=O)c1ccccc1)c1ccccc1Cl | > 100 µM (inactive) | – | –
COc1cccc(-c2ccc(SCc3ccccn3)nn2)c1 | > 100 µM (inactive) | – | –
CC(C)(C)c1ccc(S(=O)(=O)NCc2ccc(C(=O)NCc3ccccn3)cc2)cc1 | > 100 µM (inactive) | > 100 µM | –
COc1ccc(-c2noc(CCc3ccccc3)n2)cc1 | > 100 µM (inactive) | – | –
CC1CCCN(c2ccc(C(=O)NCCc3ccccc3)cn2)C1 (stereo not drawn) | > 100 µM (inactive) | – | –
COC(=O)c1cccc(CN2C(=O)SC(Nc3ccc(C)cc3)C2=O)c1 (stereo not drawn) | > 100 µM (inactive) | – | –
COc1cc(NC(=O)c2ccc(Cl)cc2)c(OC)cc1NC(=O)CN1CCCCC1 | – | > 100 µM | –
Nc1c(C(=O)NCCN2CCOCC2)c2nc3ccccc3nc2n1Cc1ccccc1 | > 100 µM (inactive) | – | –
COC(=O)c1ccc(CSc2nc3ccccc3s2)o1 | – | > 100 µM | –
CCOCCCNC(=O)C(NC(=O)c1ccccc1O)c1ccc(C)cc1 (stereo not drawn) | – | > 100 µM | –
O=C(NCCO)c1cc2c([nH]c3ccccc32)c(-c2ccccc2)n1 | > 100 µM (inactive) | > 100 µM | > 100 µM
CN1C(=O)c2cccc3c(S(=O)(=O)NCCc4ccccc4)ccc1c23 | > 100 µM (inactive) | > 100 µM | –
CC(=O)N1CCOc2ccc(S(=O)(=O)N(C)c3ccc(C)cc3)cc21 | > 100 µM (inactive) | – | –
Cc1cc(OCC(=O)N(Cc2ccco2)C2CCS(=O)(=O)C2)ccc1Cl (stereo not drawn) | > 100 µM (inactive) | > 100 µM | –
Cc1nn(-c2cccc(Cl)c2)nc1C(=O)O | > 100 µM (inactive) | > 100 µM | –
Cc1cccc(-c2ccc([C@@H]3[C@@H](CO)N4CCCCN(S(=O)(=O)c5ccccc5C)C[C@@H]34)cc2)c1 | – | > 100 µM | –
O=C(Nc1nc2ccccc2n1CCN1CCOCC1)c1ccccc1 | > 100 µM (inactive) | – | –
O=C(Nc1cccnc1)c1ccc([N+](=O)[O-])o1 | > 100 µM (inactive) | > 100 µM | –
O=C1c2cccc3cccc(c23)C(=O)N1c1ccccc1Cl | > 100 µM (inactive) | – | –
Fc1ccc(-c2nc3ccc(Cl)cn3c2Cc2cccc(Cl)c2)cc1 | – | > 100 µM | –

Compound | AC50 | AC50 [1] | AC50 [2]
CN(c1ccccc1)S(=O)(=O)c1cccc(NC(=O)CCNC(=O)c2ccc([N+](=O)[O-])cc2)c1 | > 100 µM (inactive) | – | –
O=C(Nc1cc(S(=O)(=O)N2CCCCC2)ccc1N1CCCCC1)C1CC1 | > 100 µM (inactive) | – | –
Cc1ccc(C(=O)Nc2ccc3ncccc3c2)cc1 | > 100 µM (inactive) | – | –
Cc1nnn(C23CC4CC(CC(CC(=O)Nc5ccc(C)c(C)c5)(C4)C2)C3)n1 | > 100 µM (inactive) | > 100 µM | –
CC(C)Nc1nnc(SCC(=O)Nc2sccc2C#N)s1 | > 100 µM (inactive) | – | –
CCOC(=O)c1cc(-c2ccc(OC)cc2)n[nH]1 | > 100 µM (inactive) | – | –
COc1ccc(NC(=O)c2sccc2-n2cccc2)cc1 | > 100 µM (inactive) | > 100 µM | –
CCOC(=O)c1[nH]c2ccccc2c1NC(=O)c1ccc(Br)o1 | > 100 µM (inactive) | > 100 µM | –
CSc1nc2ccc(NS(=O)(=O)c3ccc([N+](=O)[O-])cc3)cc2s1 | > 100 µM (inactive) | > 100 µM | > 100 µM
Cc1cccc(NC(=O)c2c(C)nn(-c3ccccc3)c2Cl)c1 | – | > 100 µM | –
Cc1cccc(Nc2nc(-c3ccc(F)cc3)cs2)n1 | > 100 µM (inactive) | > 100 µM | –
C=CCn1c(C)cc(C(=O)CSc2nnc(C3CC3)n2C2CC2)c1C | – | – | 48.6 µM
COc1ccc(C2CC(=O)Oc3cc(C)cc(C)c32)cc1 (stereo not drawn) | > 100 µM (inactive) | – | –
CCOC(=O)c1cnc2c(c(C)nn2C)c1Oc1ccc(OC)cc1 | > 100 µM (inactive) | – | –
COc1cc(OC)c(NS(=O)(=O)c2cccc(C(=O)OCC(=O)NCC3CCCO3)c2)cc1Cl (stereo not drawn) | – | > 100 µM | –
COc1cccc(NC(=O)COC(=O)Cc2ccccc2[N+](=O)[O-])c1 | > 100 µM (inactive) | > 100 µM | –
O=C(CSCc1cnn(-c2ccccc2)c1-n1cccc1)NCc1cccnc1 | – | > 100 µM | –
OC(COc1ccc(Cl)cc1)CN1CCN(c2ccccn2)CC1 (stereo not drawn) | > 100 µM (inactive) | – | –
COc1ccc(NC(=O)CSc2n[nH]c(-c3ccncc3)n2)c([N+](=O)[O-])c1 | – | > 100 µM | –
CC(=O)Nc1cccc(OCCCOc2cccc([N+](=O)[O-])c2)c1 | > 100 µM (inactive) | > 100 µM | –
COc1ccc(OC)c(NC(=O)COc2ccc(S(=O)(=O)NC(C)C)cc2)c1 | – | > 100 µM | –
O=C(O)c1nn2c(C(F)(F)F)cc(-c3cccs3)nc2c1Cl | > 100 µM (inactive) | – | –
COC(=O)c1ccsc1NC(=O)c1cccc(OC)c1 | – | – | 5.79 µM

Compound | AC50 | AC50 [1] | AC50 [2]
COc1ccc(-c2noc(=O)n2Cc2ccccc2Cl)cc1 | – | > 100 µM | –
C=CCn1c(C)cc(C(=O)COC(=O)CNC(=O)c2ccccc2)c1C | > 100 µM (inactive) | – | –
O=C(C[C@H]1CC[C@H](NC(=O)Nc2ccccc2F)[C@H](CO)O1)NCc1ccc(-c2ccccc2)cc1 | > 100 µM (inactive) | > 100 µM | –
CCOc1cc(/C=C(\CC(=O)O)c2nc3ccccc3s2)ccc1OC | > 100 µM (inactive) | – | –
O=C(Nc1cccc(S(=O)(=O)c2cccc(NC(=O)C3CC3)c2)c1)C1CC1 | – | > 100 µM | –
O=C(NCc1ccco1)c1ccc(COc2cccc3ccccc23)cc1 | > 100 µM (inactive) | > 100 µM | –
Cc1cc(C)c(OCCN(C)Cc2ccccc2)c(Br)c1 | – | > 100 µM | –
CCOC(=O)C1(CCCc2ccccc2)CCN(C(=O)CCn2cncn2)CC1 | > 100 µM (inactive) | – | –
O=C(C[n+]1ccc(Cc2ccccc2)cc1)Nc1ccc([N+](=O)[O-])cc1Cl | – | – | > 100 µM
COc1cccc(CN(C)Cc2nc(Cc3ccccc3Cl)no2)c1 | > 100 µM (inactive) | > 100 µM | –
CC1(c2ccc3ccccc3c2)NC(=O)N(CC(=O)N2CCN(c3ccccc3O)CC2)C1=O (stereo not drawn) | > 100 µM (inactive) | > 100 µM | –
NC(=O)c1ccsc1NC(=O)COC(=O)CSc1ccc(Cl)cc1 | > 100 µM (inactive) | > 100 µM | –
Cc1ncoc1C(=O)NCCC(c1ccccc1)c1ccccc1 | > 100 µM (inactive) | – | –
Cc1ccc(Oc2ccc(S(=O)(=O)N3CCOCC3)cc2C(N)=O)cc1C | > 100 µM (inactive) | > 100 µM | –
COc1cc(C2CC(=O)Oc3cc(C)cc(C)c32)cc(OC)c1OC (stereo not drawn) | > 100 µM (inactive) | – | –
COc1ccc(OC)c(-c2nn(-c3ccccc3)cc2C(=O)N2CCc3ccccc3C2)c1 | – | > 100 µM | –
COc1ccc(NC(=O)CSc2nnc(Cc3ccccc3)o2)c(OC)c1 | > 100 µM (inactive) | > 100 µM | –
FC(F)(F)c1ccc(Cl)c(-n2c(Cc3cccs3)n[nH]c2=S)c1 | > 100 µM (inactive) | – | –
O=C(COC(=O)Cc1ccccc1F)Nc1ccc(Cl)cn1 | > 100 µM (inactive) | – | –
Cc1cccc(NC(=O)c2nc(S(=O)(=O)Cc3ccccc3)ncc2Cl)c1 | – | > 100 µM | –
O=C(NCCc1ccccn1)c1cccc(S(=O)(=O)N2CCc3ccccc32)c1 | > 100 µM (inactive) | > 100 µM | –
O=C(CCNC(=O)c1ccco1)Nc1cccc(Br)c1 | – | > 100 µM | –
